Earlier results, collected in patent US20070065513A1, “Stable lansoprazole formulation” (priority 2003, published 2007).
Read-outs that look alike come from different tables or passages of the source.

half life (pH 6.5): 18 h
half life (pH 11): about 300 days
half-life of degradation (pH values below 4.0): less than 10 minutes
SMILES: COc1ccc2[nH]c([S+]([O-])Cc3ncc(C)c(OC)c3C)nc2c1 (stereo not drawn) [Omeprazole, 5methoxy-2(((4-methoxy-3,5-dimethyl-2-pyridinyl)methyl)sulfinyl)-1H-benzimidazole]
